Measurements taken from patent US6506788B1, “N-linked urea or carbamate of heterocyclic thioesters for vision and memory disorders” (GPI Nil Holdings, Inc., priority 1998, dated 2003).
Read-outs that look alike come from different tables or passages of the source. Marks after values point to notes of the source that are not given here. Values belong to the compound of their own block, whether it stands above or below them.

Key:
FKBP12 = FKBP12 (Homo sapiens, UniProt P62942); assay: Ki test procedure: inhibition of peptidyl-prolyl isomerase (rotamase) activity, chymotrypsin-coupled assay; assay type: biochemical
Sequence of FKBP12 (P62942 whole entry, species assumed): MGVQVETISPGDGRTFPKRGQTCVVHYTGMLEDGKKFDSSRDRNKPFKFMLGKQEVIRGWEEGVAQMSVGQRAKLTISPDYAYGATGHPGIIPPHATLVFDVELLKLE
Excerpt: The inhibition of the prolyl peptidyl cis-trans isomerase activity of FKBP may be measured as an indicator of this affinity.
Inhibition of the peptidyl-prolyl isomerase (rotamase) activity of the compounds used in the inventive methods and pharmaceutical compositions can be evaluated by known methods described in the literature (Harding et al., Nature, 1989, 341:758-760; Holt et al. J. Am. Chem. Soc., 115:9923-9938).
The cis-trans isomerization of an alanine-proline bond in a model substrate, N-succinyl-Ala-Ala-Pro-Phe-p-nitroanilide, is monitored spectrophotometrically in a chymotrypsin-coupled assay, which releases para-nitroanilide from the trans form of the substrate. The inhibition of this reaction caused by the addition of different concentrations of inhibitor is determined, and the data is analyzed as a change in first-order rate constant as a function of inhibitor concentration to yield the apparent Ki values.
In a plastic cuvette are added […] of ice cold assay buffer (25 mM HEPES, pH 7.8, 100 mM NaCl), 10 mL of FKBP (2.5 mM in 10 mM Tris-Cl pH 7.5, 100 mM NaCl, 1 mM dithiothreitol), 25 mL of chymotrypsin (50 mg/ml in 1 mM HCl) and […] of test compound at various concentrations in dimethyl sulfoxide. The reaction is initiated by the addition of 5 mL of substrate (succinyl-Ala-Phe-Pro-Phe-para-nitroanilide, 5 mg/mL in 2.35 mM LiCl in trifluoroethanol).
The absorbance at 390 nm versus time is monitored for 90 seconds using a spectrophotometer and the rate constants are determined from the absorbance versus time data files.

[1] = test system: retinal ganglion cell axons; assay: Protection of retinal ganglion cell axons from degeneration following optic nerve transection (Table V); assay type: in vivo; settings: ± SEM
Excerpt: Efficacy of representative compounds from different immunophilin ligand series in protecting retinal ganglion cell axons from degeneration following optic nerve transection is set forth in Table V.
Efficacy of representative compounds from different immunophilin ligand series in protecting retinal ganglion cell axons from degeneration following optic nerve transection

[2] = Clearance (Table V comments, no method given); assay type: in vitro ADME
[3] = test system: retinal ganglion cells and optic nerve; assay: Retinal ischemia (intraocular pressure raised above arterial blood pressure), examined 28 days later; assay type: in vivo, rats; settings: toluidine blue staining; 28 days after 1 hour retinal ischemia
Excerpt: Retinal ganglion cells were retrogradely labeled in adult rats by bilateral injection of fluorogold in their lateral geniculate nuclei. Labeled ganglion cells in the normal rat retina appear as white profiles against the dark background (FIG. 1A). Complete retinal ischemia was produced by infusing normal saline solution into the retinal vitreous cavity of each eye until the intraocular pressure exceeded arterial blood pressure. 28 days after the ischemic episode extensive degeneration of retinal ganglion cell was evidenced by massive reduction in the density of fluorogold labeled cells (FIG. 1B).
Optic nerves from vehicle treated cases examined 28 days after a 1 hour retinal ischemic episode are characterized by a decreased density of optic nerve axons and the appearance of numerous degenerating myelin figures (bright white filled circles).

retinal ganglion cells = assay: Example 16: optic nerve transection, 28 days treatment, sacrifice at 90 days; assay type: in vivo, Sprague Dawley rats; settings: 10 mg/kg/day s.c. for 28 days; 90 days after transection
Excerpt: Transection of the mammalian optic nerve results in a brief period of abortive regeneration, but the majority of axotomized neurons die and the axons from many persisting ganglion cells die back beyond the optic nerve head.

aged mice = assay: Morris watermaze spatial learning and memory in aged rodents; assay type: in vivo, C57BL/6N-Nia mice; settings: 10 mg/kg daily
Excerpt: The Morris watermaze is widely used for assessing spatial memory formation and retention in experimental animals. The test depends on the animal's ability to utilize spatial visual information in order to locate a submerged escape platform in a water tank. It is important that the tank itself be as devoid of specific visual features as possible—thus, it is always circular in shape, the sides are kept smooth and in uniform dull colors, and the water is rendered opaque with nontoxic watercolor pigment or powdered milk. This is to ensure that the animal navigates only by the use of more distant visual cues, or by the use of intra-maze cues specifically provided by the experimenter. The animals' path, speed, and swim time are tracked with a ceiling camera for later computerized analysis. Over the course of several successive trials, spatial learning can therefore be defined as a drop of distance swum, or time elapsed, from placement in the tank until escape onto the invisible platform. The procedure involved using three-month old (young) and 18-19 month old male C57BL/6N-Nia (aged) mice which habituated to the well known and conventional Morris watermaze during a 4 trials/day, 3-4 day visible platform training phase. […] Swim Distances (cm) were analyzed in a 7×5 ANOVA including Groups and Blocks (1-5) as factors in the analysis, treating Blocks as a repeated measure.

[4] = test system: retinal ganglion cells and optic nerve axons; assay: In vivo retinal ganglion cell and optic nerve axon tests: optic nerve transection, 14 or 28 day treatment, sacrifice at 90 days; design: species or system Sprague Dawley rats; settings: for ON head area (% sham) / ON Axon density / pattern of myelin degeneration, proximal stump (myelin basic protein immunohistochemistry) / pattern of myelin labeling and degenerating myelin figures, distal stump: 90 days after transection; for ON Axon density: RT97 labeled axons in 200 μm × 200 μm region; for increased ON axon density: adjusted for optic nerve diameter; for Distat optic nerve: shrinkage of cross sectional area: cross sectional area compared to sham control
Excerpt: All eyes and optic nerves stumps were removed.

retina = assay: Streptozotocin induced diabetes: retinal neovascularization and neuron loss; assay type: in vivo; settings: 28 day treatment beginning 8 weeks after onset of diabetes
[5] = apparent Ki, rotamase inhibition, read-out: Ki
[6] = Table V comments, read-out: Ki rotomase

Ki (FKBP12; [5]): 51 to 200 nM
Compound: CCC(C)(C)NC(=O)N1CCCC1C(=O)SCCc1ccccc1 (stereo not shown) [Compound 4]

Ki (FKBP12; [5]): 1 to 50 nM
Compound: O=C(SCCCc1ccccc1)C1CCCCN1C(=O)Nc1ccccc1 (stereo not shown) [Compound 12]

Compound: O=C(OCCCCc1ccccc1)[C@@H]1CCCCN1S(=O)(=O)Cc1ccccc1 [D]
RT97-RGC axon density 11 days after ON transection (36 ON axon rescued) [1]: 58.4% ±6.4% SEM

Compound: CCC(C)(C)C(=O)C(=O)N1CCCC[C@H]1C(=O)O [G]
RT97-RGC axon density 11 days after ON transection (36 ON axon rescued) [1]: 34.0% ±4.8% SEM

Ki (FKBP12; [5]): 201 to 500 nM
Compound: O=C(SCCCc1cccnc1)C1CCCN1C(=O)NC1CCCCC1 (stereo not shown) [Compound 6]

Ki (FKBP12; [6]): 7.5 nM
Clearance [2]: 63.8 µL/min
Compound: 3-(3-pyridyl)-1-propyl (2s)-1-(3,3-dimethyl-1,2-dioxopentyl)-2-pyrrolidinecarboxylate [GPI 1046]
RT97-RGC axon density 11 days after ON transection (36 ON axon rescued) [1]: 60.5% ±3.9 SEM

Compound: CCC(C)(C)C(=O)C(=O)N1CCCC[C@H]1C(=O)SCCC(c1ccccc1)c1ccccc1 [K]
RT97-RGC axon density 11 days after ON transection (36 ON axon rescued) [1]: 13.0% ±4.2% SEM

Ki (FKBP12; [5]): 51 to 200 nM
Compound: O=C(SCCCc1cccnc1)[C@@H]1CCCN1C(=S)NC1CCCCC1 [Compound 7, 3-(3-pyridyl)-1-propylmercaptyl 2S-1-[(cyclohexyl)thiocarbamoyl]-pyrrolidine-2-carboxylate]

Ki (FKBP12; [5]): 51 to 200 nM
Compound: CCC(C)(C)NC(=O)N1CCC[C@H]1C(=O)SCCCc1cccnc1 [Compound 2]

Ki (FKBP12; [6]): 149 nM
Compound: O=C(SCCCc1ccccc1)C1CCCN1C(=O)NC12CC3CC(CC(C3)C1)C2 (stereo not shown) [B]
RT97-RGC axon density 11 days after ON transection (36 ON axon rescued) [1]: 100.0% ±5.2% SEM

Compound: CCC(C)(C)C(=O)C(=O)N1CCCC1C(=O)O (stereo not shown) [L]
Clearance [2]: 5.2 µL/min
RT97-RGC axon density 11 days after ON transection (36 ON axon rescued) [1]: 7.8% ±3.0% SEM

Compound: O=C(SCCCc1ccccc1)C1CCCN1S(=O)(=O)Cc1ccccc1 (stereo not shown) [C]
Ki (FKBP12; [6]): 107 nM
Clearance [2]: 31.1 µL/min
RT97-RGC axon density 11 days after ON transection (36 ON axon rescued) [1]: 60.4% ±3.1% SEM

Ki (FKBP12; [5]): 1 to 50 nM
Compound: CCC(C)CNC(=O)N1CCC[C@H]1C(=O)SCCCc1cccnc1 (stereo partly drawn) [Compound 1, 3-(3-Pyridyl)-1-propylmercaptyl 2S-1-[(2-methylbutyl)carbamoyl]pyrrolidine-2-carboxylate]

Compound: CCC(C)(C)C(=O)C(=O)N1CCC[C@H]1C(=O)CCCCc1cccnc1 [J]
RT97-RGC axon density 11 days after ON transection (36 ON axon rescued) [1]: 15.8% ±4.8% SEM

Compound: CCC(C)(C)C(=O)C(=O)N1CCS[C@H]1C(=O)OCCCc1cccnc1 [F]
RT97-RGC axon density 11 days after ON transection (36 ON axon rescued) [1]: 55.1% ±5.9% SEM

Compound: CCC(C)(C)C(=O)C(=O)N1CCC[C@H]1C(=O)OCCCc1cccnc1 [GPI 1046, 3-(3-pyridyl)-1-propyl (2s)-1-(3,3-dimethyl-1,2-dioxopentyl)-2-pyrrolidinecarboxylate]
density of degenerating myelin figures in optic nerve [3]: dramatically decreased
preservation of axons in the proximal stump (RT97 neurofilament) (retinal ganglion cells): preserved the axons of virtually all protected neurons
difference between young and aged impaired treated groups during retention phase (aged mice; F1.69=3.09, P=0.08): no longer any statistically significant difference
spatial memory performance (swim distance, retention testing) (aged mice; aged impaired mice, retention testing after 3 weeks of dosing): significantly enhanced spatial memory performance
ON head area (% sham) ([4]; ONT/14 days treatment): 76%
ON Axon density ([4]; ONT/14 days treatment): 569
increased ON axon density ([4]; ONT/14 days treatment): 1.5X
Distat optic nerve: shrinkage of cross sectional area ([4]; ONT/14 days treatment): did not protect against shrinkage of the distal stump
Distat optic nerve myclin basic protein Density (myelin level) ([4]; ONT/14 days treatment, cross sectional area multiplied by myelin density): slightly increase the density of myelin
ON head area (% sham) ([4]; ONT/28 days treatment): 95%*
ON Axon density ([4]; ONT/28 days treatment): significant increase
increased ON axon density ([4]; ONT/28 days treatment): 5.0 X
Distat optic nerve: shrinkage of cross sectional area ([4]; ONT/28 days treatment): prevented cross sectional shrinkage
pattern of myelin degeneration, proximal stump (myelin basic protein immunohistochemistry) ([4]; first 14 days treatment): did not alter the pattern of myelin degeneration
pattern of myelin labeling and degenerating myelin figures, distal stump ([4]; first 14 days treatment): density of degenerating myelin figures remained high
pattern of myelin degeneration, proximal stump (myelin basic protein immunohistochemistry) ([4]; first 28 days treatment): dramatic preservation of the fascicular staining pattern
pattern of myelin labeling and degenerating myelin figures, distal stump ([4]; first 28 days treatment): dramatic protection of the fascicular pattern of myelin labeling
neuronal loss in the ONL (retina): did not appear to protect against neuronal loss
loss of neurons in the INL and GCL (retina; vs streptozotocin/vehicle controls): appeared to decrease the loss of neurons

Ki (FKBP12; [5]): 51 to 200 nM
Compound: CCC(C)(C)NC(=O)N1CCCCC1C(=O)SCCCc1ccccc1 (stereo not shown) [Compound 11]

Compound: CCC(C)(C)C(=O)C(=O)N1CCCC[C@H]1C(N)=O [H]
RT97-RGC axon density 11 days after ON transection (36 ON axon rescued) [1]: 30.3% ±8.0% SEM

Compound: CCC(C)(C)C(=O)C(=O)N1CCC[C@H]1C(=O)SCCC(c1ccccc1)c1ccccc1 [M]
RT97-RGC axon density 11 days after ON transection (36 ON axon rescued) [1]: −6.3% +3.9% SEM

Compound: O=C(OCCCc1cccnc1)[C@@H]1CCCN1C(=S)NC1CCCCC1 [I]
RT97-RGC axon density 11 days after ON transection (36 ON axon rescued) [1]: 23.8% ±5.3 SEM

Ki (FKBP12; [5]): 51 to 200 nM
Compound: COc1ccc(CCCSC(=O)C2CCCCN2C(=O)NC2CCCCC2)cc1 (stereo not shown) [Compound 16]

Ki (FKBP12; [5]): 1 to 50 nM
Compound: O=C(SC(CCc1ccccc1)CCc1ccccc1)C1CCCCN1C(=S)NC1CCCCC1 (stereo not shown) [Compound 15]
